Where two headings read alike, the source gives them in different places.
Tests used:
thymidylate synthase = target: T1, thymidylate synthase (Mus musculus, UniProt P07607); experiment: Test (a): in vitro inhibition of the enzyme thymidylate synthase (partially purified from L1210 mouse leukaemia cells); assay type: biochemical
T1 construct: obtained in partially purified form from L1210 mouse leukaemia cells; endogenous in cells; host or cells: L1210 mouse leukaemia cells (enzyme partially purified)
Source text: (a) An in vitro assay which determines the ability of a test compound to inhibit the enzyme thymidylate synthase.

L1210 = experiment: Test (b): inhibition of the growth of the leukaemia cell line L1210 in cell culture; assay type: cell-based; settings: Mus musculus, read-out: IC50 against the L1210 cell line [Test (b)]
Source text: (b) An assay which determines the ability of a test compound to inhibit the growth of the leukaemia cell line L1210 in cell culture. The test is similar to that described in UK Patent Specification No. 2065653B;

[1] = tested on: human breast, ovarian and liver cancer; settings: clinical trials; cited from earlier work
[2] = particularly in relation to the liver and kidney; cited from earlier work

T1 sequence (P07607 whole entry): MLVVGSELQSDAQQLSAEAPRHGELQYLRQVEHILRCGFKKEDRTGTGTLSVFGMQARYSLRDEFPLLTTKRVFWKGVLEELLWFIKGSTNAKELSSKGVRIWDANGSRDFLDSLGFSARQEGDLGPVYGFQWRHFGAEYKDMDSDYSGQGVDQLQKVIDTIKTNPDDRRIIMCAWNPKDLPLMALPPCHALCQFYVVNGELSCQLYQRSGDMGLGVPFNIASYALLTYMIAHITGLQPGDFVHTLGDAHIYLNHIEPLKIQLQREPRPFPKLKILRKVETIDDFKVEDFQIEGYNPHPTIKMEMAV

| IC50 (thymidylate synthase; enzyme from L1210 mouse leukaemia cells, read-out: IC50 against thymidylate synthase [Test (a)]) [µM] | SMILES | IC50 (thymidylate synthase) [µM] | IC50 (L1210) [µM] | activity against human breast, ovarian and liver cancer [1] | symptoms of toxicity in humans [2] |
| --- | --- | --- | --- | --- | --- |
|  | C#CCN(Cc1ccc2nc(C)[nH]c(=O)c2c1)c1ccc(C(=O)NCc2ccccc2[N+](=O)[O-])cc1 [p-[N-(3,4-dihydro-2-methyl-4-oxoquinazolin-6-ylmethyl)-N-(prop-2-ynyl)amino]-N-(2-nitrobenzyl)benzamide] | 0.05 | 1.8 |  |  |
| 0.5 | C#CCN(Cc1ccc2nc(C)nc(O)c2c1)c1ccc(C(=O)NCc2ccccn2)cc1 [p-[N-(3,4-dihydro-2-methyl-4-oxoquinazolin-6-ylmethyl)-N-(prop-2-ynyl)amino]-N-(2-pyridylmethyl)benzamide] |  | 3.9 |  |  |
|  | C#CCN(Cc1ccc2nc(N)[nH]c(=O)c2c1)c1ccc(C(=O)N[C@@H](CCC(=O)O)C(=O)O)cc1 [CB3717] |  |  | promising activity against human breast, ovarian and liver cancer | shows symptoms of toxicity in humans, particularly in relation to the liver and kidney |
